For assay [1], the target named is T1, Nostoc sp. R76DM phycocyanin (N-PC) (Nostoc, UniProt A0A5H1ZR40+A0A5H1ZR41).
T1 construct: native, purified from Nostoc sp; R76DM cells; (alpha3beta3)2 hexamer; subunits near 18 kDa on SDS-PAGE; chromophores covalently attached
Put plainly: X-ray crystal structure ([…] Å). It counts as binding. Conditions: covalent; native chromophore attached to alpha Cys84, beta Cys82 and beta Cys153; 18 PCB per hexamer.

Assay [2] deals with Nostoc sp. R76DM phycocyanin αβ heterodimer (αβ monomer) (Nostoc sp. R76DM). Put plainly: crystal structure; N-PC at 10 mg/mL, sitting drop vapor diffusion, 0.2 M sodium malonate, 20% (w/v) PEG 3350, 25 °C; space group P21, 2.35 Å; one (α3β3)2 hexamer in the asymmetric unit.

The stoichiometry N is a count of units in the complex or per binding partner.

T1 sequence (A0A5H1ZR41 entry or part of it): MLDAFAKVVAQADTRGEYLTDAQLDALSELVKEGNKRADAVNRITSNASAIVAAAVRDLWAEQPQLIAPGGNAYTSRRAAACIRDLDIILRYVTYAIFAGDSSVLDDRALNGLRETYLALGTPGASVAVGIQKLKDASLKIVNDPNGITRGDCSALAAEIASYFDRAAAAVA
T1 sequence (A0A5H1ZR40 entry or part of it): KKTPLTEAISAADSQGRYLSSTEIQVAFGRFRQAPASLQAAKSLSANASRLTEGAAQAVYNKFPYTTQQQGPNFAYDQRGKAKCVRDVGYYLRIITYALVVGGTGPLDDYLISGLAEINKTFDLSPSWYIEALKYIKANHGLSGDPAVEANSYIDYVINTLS

With `C/C=C1/C(=C/c2[nH]c(/C=C3N=C(/C=C4\NC(=O)C(CC)=C4C)C(C)=C\3CCC(=O)O)c(CCC(=O)O)c2C)NC(=O)[C@@H]1C` [phycocyanobilin], the “X-ray crystal structure (2.35 Å)” value in assay [1] is on record as “The N-PC contains three PCB chromophores; one is attached covalently with Cys84 of α-subunit”.
As to “Nostoc sp. R76DM phycocyanin αβ heterodimer (αβ monomer) (complex)”, in assay [2], the stoichiometry N was found to be 6.
